Test results from patent EP4741392A1, “1H-PYRAZOLO[4,3-C]PYRIDINE COMPOUND, AND COMPOSITION THEREOF AND USE THEREOF” (Shenzhen TargetRx Co., Ltd., priority 2023, dated 2025).
pIC50: −log10 of the molar value.

Assays:
Format in all cases: biochemical
[1] = target: T1, BTK kinase (Homo sapiens, UniProt Q06187); assay: Kinase activity inhibition assay (HTRF TK Kit)
T1 construct: purchased Invitrogen PV3587
Description: (§1) In this assay, the HTRF TK Kit (Catalog No. 62TK0PEC) provided by Cisbio was used to detect the inhibitory activity of compounds on BTK kinase, BTK T474I kinase and BTK C481 S kinase and the selectivity of compounds relative to EGFR, ITK and TEC kinases.
(§2) Reagents and consumables: BTK kinase (Invitrogen, Catalog No. PV3587), BTK C481S (Carna, Product No. 08-547), BTK T474I(SignalChem Product No. B10-12HH), ITK (Cama, Product No. 08-181), EGFR (Cama, Product No. 08-115), TEC (Carna, Product No. 08-182), HTRF-TK kit (Cisbio, Product No. 62TK0PEC), MgCl2 (Sigma, Product No. M1028), MnCl2 (Sigma, Product No. M1787), DTT (Sigma, Product No. D0632), ATP (Sigma, Product No. A7699-1g), DMSO (Sigma, Product No. D2650), 384-well plate (PE, Product No. 6008280).
(§3) The entire operation steps were carried out on ice, and the total reaction volume was 10µL. A compound (4µL), substrate and ATP (4µL), and kinase (2µL) were added in sequence to a 384-well plate, and the plate was shaken for 30 seconds. The mixture was reacted at room temperature for an appropriate time, and then the detection reagent was added. The resulting mixture was reacted at room temperature for 1 hour, and then the plate was assayed with a microplate reader. The specific steps were as follows: • a) a 1 × kinase buffer solution required for the kinase assay was calculated according to the amount of the test compound, and prepared as needed; • b) 2.5 × working concentration of a compound was prepared, 100-fold gradient concentration solutions of a compound were diluted by 40 × to the desired concentration, respectively, mixed well, and added to each well at 4 µL per well; • c) 5 × working concentration of the substrate and ATP were prepared, mixed in a ratio of 1:1 before being added to the 384-well plate, and added to each well at 4 µL per well; • d) 5 × working concentration of a kinase was prepared, 2 µL of which was added to each well; • e) the plate was shaken on a microplate shaker for 30 seconds, sealed with a sealing membrane, and the mixture was reacted at room temperature for an appropriate time; • f) 4 × working concentration of streptavidin XL-665 and TK antibody-cryptate compound were prepared, mixed in a ratio of 1:1 before being added to the 384-well plate, and added to each well at 10 µL per well; • g) the mixture was reacted at room temperature for 1 hour, and then the plate was read; • h) the wells with only substrate, ATP and 1% DMSO added but no kinase were blank control wells, and the wells with only substrate, ATP, 1% DMSO and kinase were positive control wells.
(§4) Readings: The values of 620 nm (cryptate) and 665 nm (XL665) were read with a BioTek Synerg Neo2 microplate reader, the ratio of 665/620 for each well was calculated, and the data were exported.
(§5) Data analysis: IC50 was calculated using GraphPad Prism 7.0 software.
(§6) The IC50 (half-maximal inhibitory concentration) of the compound was obtained using the following nonlinear fitting formula: Y = Bottom + (Top−Bottom)/(1+10^(∧)((LogIC50−X)*HillSlope)) [formula] • X: Log value of the compound concentration • Y: Inhibition rate (% inhibition) • Top: Maximum response • Bottom: Baseline response • HillSlope: Slope of the curve
(§7) The formula for calculating kinase inhibition rate (inhibition rate %) was: [formula]

[2] = target: T2, BTK T474I (Homo sapiens, UniProt Q06187, T474I); assay: Kinase activity inhibition assay (HTRF TK Kit)
T2 construct: purchased SignalChem B10-12HH
Description: as §1, §2, §3, §4, §5, §6, §7

[3] = target: T3, BTK C481S (Homo sapiens, UniProt Q06187, C481S); assay: Kinase activity inhibition assay (HTRF TK Kit)
T3 construct: purchased Carna 08-547
Description: as §1, §2, §3, §4, §5, §6, §7

[4] = target: T4, TEC (Homo sapiens, UniProt P42680); assay: Kinase activity inhibition assay (HTRF TK Kit), selectivity
T4 construct: purchased Carna 08-182
T4 sequence (P42680 1-631): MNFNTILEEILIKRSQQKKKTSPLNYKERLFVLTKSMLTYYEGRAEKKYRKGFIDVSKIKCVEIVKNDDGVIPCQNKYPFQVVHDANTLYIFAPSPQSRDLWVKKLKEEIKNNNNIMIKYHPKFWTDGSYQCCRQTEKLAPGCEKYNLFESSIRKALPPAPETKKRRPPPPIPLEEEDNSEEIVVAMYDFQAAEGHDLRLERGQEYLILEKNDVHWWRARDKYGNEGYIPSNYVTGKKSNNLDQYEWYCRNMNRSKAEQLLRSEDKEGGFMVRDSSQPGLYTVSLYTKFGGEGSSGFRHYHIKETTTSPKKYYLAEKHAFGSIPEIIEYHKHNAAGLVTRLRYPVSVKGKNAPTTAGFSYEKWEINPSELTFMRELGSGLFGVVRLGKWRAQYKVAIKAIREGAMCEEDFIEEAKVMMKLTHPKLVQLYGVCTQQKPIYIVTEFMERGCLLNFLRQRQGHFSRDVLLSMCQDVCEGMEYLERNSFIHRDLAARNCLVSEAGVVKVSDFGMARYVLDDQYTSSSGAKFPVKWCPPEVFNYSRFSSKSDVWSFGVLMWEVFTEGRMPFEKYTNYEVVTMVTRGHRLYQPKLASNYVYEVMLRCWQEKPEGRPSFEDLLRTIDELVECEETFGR
Description: as §1, §2, §3, §4, §5, §6, §7

[5] = target: T5, ITK (Homo sapiens, UniProt Q08881); assay: as above
T5 construct: purchased Carna 08-181
T5 sequence (Q08881 1-620): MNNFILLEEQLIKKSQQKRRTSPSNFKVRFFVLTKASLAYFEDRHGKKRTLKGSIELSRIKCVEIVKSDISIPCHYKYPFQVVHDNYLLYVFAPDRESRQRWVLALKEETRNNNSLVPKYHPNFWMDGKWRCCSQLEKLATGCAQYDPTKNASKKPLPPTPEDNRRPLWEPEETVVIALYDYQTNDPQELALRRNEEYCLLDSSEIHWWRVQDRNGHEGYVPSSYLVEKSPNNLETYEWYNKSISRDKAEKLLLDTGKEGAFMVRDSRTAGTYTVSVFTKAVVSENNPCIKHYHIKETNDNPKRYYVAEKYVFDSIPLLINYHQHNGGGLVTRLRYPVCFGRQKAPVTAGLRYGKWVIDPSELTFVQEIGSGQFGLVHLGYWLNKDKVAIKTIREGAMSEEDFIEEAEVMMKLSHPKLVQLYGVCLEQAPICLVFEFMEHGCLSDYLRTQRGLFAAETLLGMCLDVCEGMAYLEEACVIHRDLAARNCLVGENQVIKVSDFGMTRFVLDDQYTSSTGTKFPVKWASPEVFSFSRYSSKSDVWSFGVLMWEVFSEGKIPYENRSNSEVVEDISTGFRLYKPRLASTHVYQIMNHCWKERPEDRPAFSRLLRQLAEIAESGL
Description: as §1, §2, §3, §4, §5, §6, §7

[6] = target: T6, EGFR (Homo sapiens, UniProt P00533); assay: as above
T6 construct: purchased Carna 08-115
Description: as §1, §2, §3, §4, §5, §6, §7

T3 sequence (Q06187 whole entry C481S): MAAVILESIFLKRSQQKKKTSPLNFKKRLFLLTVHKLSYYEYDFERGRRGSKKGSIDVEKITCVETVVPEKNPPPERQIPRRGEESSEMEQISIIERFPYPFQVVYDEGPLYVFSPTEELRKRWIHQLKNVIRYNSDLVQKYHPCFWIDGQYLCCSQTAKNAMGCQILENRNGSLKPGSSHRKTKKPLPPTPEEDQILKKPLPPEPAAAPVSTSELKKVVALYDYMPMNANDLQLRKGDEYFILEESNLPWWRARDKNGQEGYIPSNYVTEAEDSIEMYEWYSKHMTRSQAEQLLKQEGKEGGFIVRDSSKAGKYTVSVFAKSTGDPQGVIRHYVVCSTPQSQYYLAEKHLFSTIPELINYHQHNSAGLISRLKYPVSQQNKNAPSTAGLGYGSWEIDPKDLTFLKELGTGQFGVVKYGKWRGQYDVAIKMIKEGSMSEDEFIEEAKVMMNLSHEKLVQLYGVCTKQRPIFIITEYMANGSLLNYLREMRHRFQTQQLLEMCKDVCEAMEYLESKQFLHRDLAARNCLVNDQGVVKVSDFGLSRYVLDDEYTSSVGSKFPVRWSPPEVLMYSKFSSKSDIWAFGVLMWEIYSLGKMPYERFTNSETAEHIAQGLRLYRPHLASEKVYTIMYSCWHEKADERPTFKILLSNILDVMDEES
T2 sequence (Q06187 whole entry T474I): as the sequence (Q06187 whole entry C481S) above, with T474I, S481C counted along it
T1 sequence (Q06187 whole entry): as the sequence (Q06187 whole entry C481S) above, with S481C counted along it
T6 sequence (P00533 669-1210 limits assumed): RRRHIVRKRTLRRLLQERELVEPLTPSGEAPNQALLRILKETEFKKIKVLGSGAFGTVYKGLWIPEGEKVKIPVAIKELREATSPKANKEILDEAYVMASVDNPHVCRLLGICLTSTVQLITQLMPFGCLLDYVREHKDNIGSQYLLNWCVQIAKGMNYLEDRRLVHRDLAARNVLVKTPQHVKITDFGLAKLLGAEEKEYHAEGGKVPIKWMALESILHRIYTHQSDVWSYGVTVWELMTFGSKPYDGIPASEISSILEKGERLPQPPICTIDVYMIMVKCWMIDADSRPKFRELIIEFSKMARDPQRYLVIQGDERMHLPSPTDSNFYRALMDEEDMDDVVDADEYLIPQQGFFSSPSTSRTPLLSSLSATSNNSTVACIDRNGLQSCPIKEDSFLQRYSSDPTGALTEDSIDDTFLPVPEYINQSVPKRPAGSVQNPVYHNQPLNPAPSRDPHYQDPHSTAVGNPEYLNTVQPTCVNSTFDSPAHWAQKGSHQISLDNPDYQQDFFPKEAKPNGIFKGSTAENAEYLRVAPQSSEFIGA

Row | SMILES | pIC50 [1] | pIC50 [2] | pIC50 [3] | pIC50 [4] | pIC50 [5] | pIC50 [6]
1 | COc1ccc(F)cc1C(=O)NCc1ccc(-c2ncc(-c3ccc(N4CCN(C)C[C@H]4C)cn3)c3[nH]nc(N)c23)cc1 [Example 75, (R)-N-(-4-(3-amino-7-(5-(2,4-dimethylpiperazin-1-yl)pyridin-2-yl) 1H-pyrazolo[4,3-c]pyridin-4-yl)benzyl)-5-fluoro-2-methoxybenzamide] | 8.30 to 9.00 | 7.30 to 8.30 | ≥ 9.00 | 7.30 to 8.30 | 7.30 to 8.30 | 7.30 to 8.30
2 | COc1ccc(F)cc1C(=O)NCc1ccc(-c2nc(C(F)F)c(-c3ncccn3)c3[nH]nc(N)c23)cc1 [Example 85, N-(4-(3-amino-6-(difluoromethyl)-7-(pyrimidin-2-yl)-1H-pyrazolo[4,3-c]pyridin-4-yl)benzyl)-5-fluoro-2-methoxybenzamide] | 8.30 to 9.00 | 6.30 to 7.30 | 8.30 to 9.00 | 6.30 to 7.30 | < 6.30 | < 6.30
3 | CNC(=O)Cn1ccc(-c2cnc(-c3ccc(CNC(=O)c4cc(F)ccc4OC)cc3)c3c(N)n[nH]c23)n1 [Example 26, N-(4-(3-amino-7-(1-(2-(methylamino)-2-oxoethyl)-1H-pyrazol-3-yl)-1H-pyrazolo[4,3-c]pyridin-4-yl)benzyl)-5-fluoro-2-methoxybenzamide] | 8.30 to 9.00 | 6.30 to 7.30 | 8.30 to 9.00 | 6.30 to 7.30 | < 6.30 | 6.30 to 7.30
4 | COc1ccc(F)cc1C(=O)NCc1ccc(-c2ncc(-c3ccncc3)c3[nH]nc(N)c23)cc1 [Example 106, N-(4-(3-amino-7-(pyridin-4-yl)-1H-pyrazolo[4,3-c]pyridin-4-yl)benzyl)-5-fluoro-2-methoxybenzamide] | 6.30 to 7.30 | < 6.30 | 6.30 to 7.30 | < 6.30 | < 6.30 | < 6.30
5 | COc1ccc(F)cc1C(=O)NCc1ccc(-c2nc(C3CCOCC3)cc3[nH]nc(N)c23)cc1 [Example 115, N-(4-(3-amino-6-(tetrahydro-2H-pyran-4-yl)-1H-pyrazolo[4,3-c]pyridin-4-yl)benzyl)-5-fluoro-2-methoxybenzamide] | 7.30 to 8.30 | 6.30 to 7.30 | 8.30 to 9.00 | 6.30 to 7.30 | < 6.30 | 6.30 to 7.30
6 | COc1ccc(F)cc1C(=O)NCc1ccc(-c2ncc(-c3ccc(C)cn3)c3[nH]nc(N)c23)cc1 [Example 37, N-(4-(3-amino-7-(5-methylpyridin-2-yl)-1H-pyrazolo[4,3-c]pyridin-4-yl)benzyl)-5-fluoro-2-methoxybenzamide] | ≥ 9.00 | 6.30 to 7.30 | ≥ 9.00 | 7.30 to 8.30 | < 6.30 | 6.30 to 7.30
7 | COc1ccc(F)cc1C(=O)NCc1ccc(-c2ncc(-c3ccc(OCCN4CCOCC4)cn3)c3[nH]nc(N)c23)cc1 [Example 61, N-(4-(3-amino-7-(5-(2-morpholinoethoxy)pyridin-2-yl)-1H-pyrazolo[4,3-c]pyridin-4-yl)benzyl)-5-fluoro-2-methoxybenzamide] | ≥ 9.00 | 7.30 to 8.30 | ≥ 9.00 | 7.30 to 8.30 | 6.30 to 7.30 | 7.30 to 8.30
8 | COc1ccc(F)cc1C(=O)NCc1ccc(-c2nc(C(C)C(F)(F)F)c(-c3ncccn3)c3[nH]nc(N)c23)cc1 (single isomer, unassigned) [Example 7-2, N-(4-(3-amino-7-(pyrimidin-2-yl)-6-(1,1,1-trifluoropropan-2-yl)-1H-pyrazolo[4,3-c]pyridin-4-yl)benzyl)-5-fluoro-2-methoxybenzamide] | 8.30 to 9.00 | 6.30 to 7.30 | 8.30 to 9.00 | 6.30 to 7.30 | < 6.30 | < 6.30
9 | COc1ccc(F)cc1C(=O)NCc1ccc(-c2ncc(-c3ccn(CC(=O)N(C)C)n3)c3[nH]nc(N)c23)cc1 [Example 25, N-(4-(3-amino-7-(1-(2-(dimethylamino)-2-oxoethyl)-1H-pyrazol-3-yl)-1H-pyrazolo[4,3-c]pyridin-4-yl)benzyl)-5-fluoro-2-methoxybenzamide] | 8.30 to 9.00 | 6.30 to 7.30 | 8.30 to 9.00 | 6.30 to 7.30 | < 6.30 | 6.30 to 7.30
10 | COc1ccc(F)cc1C(=O)NCc1ccc(-c2nc(C(C)C(F)(F)F)cc3[nH]nc(N)c23)cc1 (single isomer, unassigned) [Example 2, N-(4-(3-amino-6-(1,1,1-trifluoropropan-2-yl)-1H-pyrazolo[4,3-c]pyridin-4-yl)benzyl)-5-fluoro-2-methoxybenzamide] | 8.30 to 9.00 | 6.30 to 7.30 | 8.30 to 9.00 | 6.30 to 7.30 | < 6.30 | 6.30 to 7.30
11 | COc1ccc(F)cc1C(=O)NCc1ccc(-c2ncc(-c3ccc(N4CCOCC4)cn3)c3[nH]nc(N)c23)cc1 [Example 76, N-(4-(3-amino-7-(5-morpholinopyridin-2-yl)-1H-pyrazolo[4,3-c]pyridin-4-yl)benzyl)-5-fluoro-2-methoxybenzamide] | ≥ 9.00 | 8.30 to 9.00 | ≥ 9.00 | 8.30 to 9.00 | 6.30 to 7.30 | 7.30 to 8.30
12 | COc1ccc(F)cc1C(=O)NCc1ccc(-c2ncc(-c3nc4cccnc4s3)c3[nH]nc(N)c23)cc1 [Example 100, N-(4-(3-amino-7-(thiazolo[5,4-b]pyridin-2-yl)-1H-pyrazolo[4,3-c]pyridin-4-yl)benzyl)-5-fluoro-2-methoxybenzamide] | 8.30 to 9.00 | 6.30 to 7.30 | 8.30 to 9.00 | 7.30 to 8.30 | < 6.30 | 6.30 to 7.30
